For seven compounds, melting point results are on record in patent publication US20050004132A1, “Nitrogenous tetrahydropyridyl-alkyl-heterocycles with tnf activity” (priority 2001, published 2005).

Structures can show the parent of a compound that is named as a salt.

Compound `Cc1ccc(-c2cccc(CCN3CC=C(c4cccc(C(F)(F)F)c4)CC3)c2)cn1` (as salt: oxalate) returned a melting point of 170 to 173 °C.
In turn, `FC(F)(F)c1cccc(C2=CCN(CCc3cccc(-c4cnccn4)c3)CC2)c1` (as salt: oxalate) [14] yielded a melting point of 199 to 201 °C.
The value for `FC(F)(F)c1cccc(C2=CCN(CCc3cccc(-c4ccccn4)c3)CC2)n1` (as salt: oxalate) was 126 to 129 °C; that for `Clc1cccc(C2=CCN(CCc3cccc(-c4ccncc4)c3)CC2)n1` (as salt: oxalate) was 183 to 186 °C; that for `FC(F)(F)c1cccc(C2=CCN(CCc3cccc(-c4ccccn4)c3)CC2)c1` (as salt: oxalate) was 182 to 186 °C.
On to `FC(F)(F)c1cccc(C2=CCN(CCc3cccc(-c4cnccn4)c3)CC2)c1` (as salt: oxalate) [12], for which the melting point fell in the range of 205 to 207 °C.
For the compound `Fc1cccc(C2=CCN(CCc3cccc(-c4ccccn4)c3)CC2)c1` (as salt: oxalate), the melting point fell in the range of 175 to 177 °C.
